Results reported in patent US20200131156A1, “ARYLSULFONYLPYROLECARBOXAMIDE DERIVATIVES AS Kv3 POTASSIUM CHANNEL ACTIVATORS” (H. Lundbeck A/S, priority 2018, published 2020).

Molecular target: T1, hKv3.1b (Homo sapiens, UniProt P48547)
T1 construct: expressed in transfected cells
T1 sequence (P48547 1-585 isoform P48547-2): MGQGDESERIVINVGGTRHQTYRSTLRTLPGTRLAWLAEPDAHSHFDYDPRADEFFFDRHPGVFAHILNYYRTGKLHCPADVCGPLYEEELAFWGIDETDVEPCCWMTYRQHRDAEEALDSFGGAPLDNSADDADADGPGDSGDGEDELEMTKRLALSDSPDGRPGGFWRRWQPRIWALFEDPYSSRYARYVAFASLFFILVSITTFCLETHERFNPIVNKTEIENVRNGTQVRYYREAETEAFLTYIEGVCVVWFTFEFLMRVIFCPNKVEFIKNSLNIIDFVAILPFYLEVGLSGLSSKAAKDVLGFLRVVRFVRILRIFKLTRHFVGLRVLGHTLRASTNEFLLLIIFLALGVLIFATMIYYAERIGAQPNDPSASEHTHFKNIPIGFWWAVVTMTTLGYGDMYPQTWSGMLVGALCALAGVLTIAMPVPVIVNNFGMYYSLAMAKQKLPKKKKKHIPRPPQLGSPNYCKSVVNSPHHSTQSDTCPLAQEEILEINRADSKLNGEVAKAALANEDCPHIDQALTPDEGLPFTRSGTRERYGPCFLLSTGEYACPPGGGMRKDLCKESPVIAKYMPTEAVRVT
Experiment: Automated patch clamp (QPatch-16x) on HEK-293 cells stably expressing hKv3.1b
Assay type: cell-based
Conditions: for ECdelta5 mV: concentration needed to shift the activation threshold 5 mV; for Threshold Shift: maximum absolute hyperpolarizing shift of activation threshold at tested concentrations 0.37-30 μM
Procedure, shortened: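 Whole-cell automated patch clamp, extracellular pH 7.4, 4 mM Na2ATP intracellular; holding −80 mV, 200 ms steps −70 to +10 mV. Five ascending concentrations (0.37–30 μM) per cell, ~3 min each, 0.33% DMSO vehicle. Activation threshold (5% of vehicle peak at 10 mV) shift fitted sigmoidally; ECdelta5 mV read from curve.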

| SMILES | ECdelta5 mV [nM] | Threshold Shift [mV] |
| --- | --- | --- |
| Cc1noc(CNC(=O)c2ccn(S(=O)(=O)c3ccc(F)cc3)c2)n1 [Compound 65, 1-(4-fluorobenzene-1-sulfonyl)-N-[(3-methyl-1,2,4-oxadiazol-5-yl)methyl]-1H-pyrrole-3-carboxamide] | 4200 | 14 |
| Cc1ccc(S(=O)(=O)n2cc(C)c(C(=O)NCc3cnc(C)cn3)c2)cc1 [Compound 8, 4-methyl-N-[(5-methylpyrazin-2-yl)methyl]-1-(p-tolylsulfonyl)pyrrole-3-carboxamide] | 4000 | 12 |
| COc1ccc(S(=O)(=O)n2ccc(C(=O)NCc3cnn(C)c3)c2)cc1 [Compound 69, 1-(4-methoxybenzene-1-sulfonyl)-N-[(1-methyl-1H-pyrazol-4-yl)methyl]-1H-pyrrole-3-carboxamide] | 3000 | 18 |
| Cn1ccc(CNC(=O)c2ccn(S(=O)(=O)c3ccccc3)c2)n1 [Compound 82, 1-(benzenesulfonyl)-N-[(1-methyl-1H-pyrazol-3-yl)methyl]-1H-pyrrole-3-carboxamide] | 4100 | 14 |
| Cc1ccccc1S(=O)(=O)n1ccc(C(=O)NCc2cnn(C)c2)c1 [Compound 76, 1-(2-methylbenzene-1-sulfonyl)-N-[(1-methyl-1H-pyrazol-4-yl)methyl]-1H-pyrrole-3-carboxamide] | 3600 | 17 |
| COc1ccc(S(=O)(=O)n2ccc(C(=O)NCc3cc(C)no3)c2)cc1 [Compound 71, 1-(4-methoxybenzene-1-sulfonyl)-N-[(3-methyl-1,2-oxazol-5-yl)methyl]-1H-pyrrole-3-carboxamide] | 1800 | 19 |
| Cc1cnc(CNC(=O)c2ccn(S(=O)(=O)c3c(C)cc(F)cc3C)c2)cn1 [Compound 99, 1-(4-fluoro-2,6-dimethyl-phenyl)sulfonyl-N-[(5-methylpyrazin-2-yl)methyl]pyrrole-3-carboxamide] | 1900 | 21 |
| Cc1ccc(S(=O)(=O)n2ccc(C(=O)NCc3cnc(C)nc3)c2)cc1 [Compound 2, N-[(2-methylpyrimidin-5-yl)methyl]-1-(p-tolylsulfonyl)pyrrole-3-carboxamide] | 750 | 40 |
| CNc1cnc(CNC(=O)c2ccn(S(=O)(=O)c3ccc(C)cc3F)c2)cn1 [Compound 106, 1-(2-fluoro-4-methylbenzene-1-sulfonyl)-N-{[5-(methylamino)pyrazin-2-yl]methyl}-1H-pyrrole-3-carboxamide] | 550 | 42 |
| Cc1cnc(CNC(=O)c2ccn(S(=O)(=O)c3ccccc3)c2)cn1 [Compound 48, 1-(benzenesulfonyl)-N-[(5-methylpyrazin-2-yl)methyl]-1H-pyrrole-3-carboxamide] | 2300 | 18 |
| Cc1cccc(S(=O)(=O)n2ccc(C(=O)NCc3ccn(C)n3)c2)c1 [Compound 60, 1-(3-methylbenzene-1-sulfonyl)-N-[(1-methyl-1H-pyrazol-3-yl)methyl]-1H-pyrrole-3-carboxamide] | 2200 | 16 |
| COc1ccc(S(=O)(=O)n2ccc(C(=O)NCc3ncc(C)cn3)c2)c(Cl)c1 [Compound 118, 1-(2-chloro-4-methoxybenzene-1-sulfonyl)-N-[(5-methylpyrimidin-2-yl)methyl]-1H-pyrrole-3-carboxamide] | 2500 | 20 |
| Cc1ccc(S(=O)(=O)n2ccc(C(=O)NCc3nnc(C)o3)c2)cc1 [Compound 31, N-[(5-methyl-1,3,4-oxadiazol-2-yl)methyl]-1-(p-tolylsulfonyl)pyrrole-3-carboxamide] | 9600 | 13 |
| Cc1cccc(S(=O)(=O)n2ccc(C(=O)NCc3nc(C)no3)c2)c1 [Compound 61, 1-(3-methylbenzene-1-sulfonyl)-N-[(3-methyl-1,2,4-oxadiazol-5-yl)methyl]-1H-pyrrole-3-carboxamide] | 5900 | 12 |
| COc1ccc(S(=O)(=O)n2ccc(C(=O)NCc3ccn(C)n3)c2)cc1 [Compound 66, 1-(4-methoxybenzene-1-sulfonyl)-N-[(1-methyl-1H-pyrazol-3-yl)methyl]-1H-pyrrole-3-carboxamide] | 1400 | 18 |
| Cc1ccc(CNC(=O)c2ccn(S(=O)(=O)c3ccccc3C)c2)nc1 [Compound 77, 1-(2-methylbenzene-1-sulfonyl)-N-[(5-methylpyridin-2-yl)methyl]-1H-pyrrole-3-carboxamide] | 3300 | 12 |
| COc1ccc(S(=O)(=O)n2ccc(C(=O)NCc3nc(C)no3)c2)cc1 [Compound 68, 1-(4-methoxybenzene-1-sulfonyl)-N-[(3-methyl-1,2,4-oxadiazol-5-yl)methyl]-1H-pyrrole-3-carboxamide] | 2300 | 21 |

Second part, the compound after the results:

| ECdelta5 mV [nM] | Threshold Shift [mV] | SMILES |
| --- | --- | --- |
| 1100 | 17 | COc1ccc(S(=O)(=O)n2ccc(C(=O)NCc3ccc(C)cn3)c2)cc1 [Compound 70, 1-(4-methoxybenzene-1-sulfonyl)-N-[(5-methylpyridin-2-yl)methyl]-1H-pyrrole-3-carboxamide] |
| 2400 | 15 | Cc1ccc(S(=O)(=O)n2ccc(C(=O)NCc3ccccn3)c2)cc1 [Compound 9, 1-(p-tolylsulfonyl)-N-(2-pyridylmethyl) pyrrole-3-carboxamide] |
| 2300 | 15 | Cc1ccc(S(=O)(=O)n2ccc(C(=O)NCc3ccno3)c2)cc1 [Compound 53, 1-(4-methylbenzene-1-sulfonyl)-N-[(1,2-oxazol-5-yl)methyl]-1H-pyrrole-3-carboxamide] |
| 2000 | 15 | Cc1ccc(S(=O)(=O)n2ccc(C(=O)NCc3cocn3)c2)cc1 [Compound 54, 1-(4-methylbenzene-1-sulfonyl)-N-[(1,3-oxazol-4-yl)methyl]-1H-pyrrole-3-carboxamide] |
| 1800 | 22 | Cc1ccc(S(=O)(=O)n2ccc(C(=O)NCc3cnn(C)c3)c2)cc1 [Compound 37, N-[(1-methylpyrazol-4-yl)methyl]-1-(p-tolylsulfonyl) pyrrole-3-carboxamide] |
| 1500 | 15 | Cc1ccc(S(=O)(=O)n2ccc(C(=O)NCc3cnsc3)c2)cc1 [Compound 55, 1-(4-methylbenzene-1-sulfonyl)-N-[(1,2-thiazol-4-yl)methyl]-1H-pyrrole-3-carboxamide] |
| 3600 | 10 | COc1cccnc1CNC(=O)c1ccn(S(=O)(=O)c2ccc(C)cc2)c1 [Compound 10, N-[(3-methoxy-2-pyridyl)methyl]-1-(p-tolylsulfonyl)pyrrole-3-carboxamide] |
| 2100 | 11 | COc1ccnc(CNC(=O)c2ccn(S(=O)(=O)c3ccc(C)cc3)c2)c1 [Compound 19, N-[(4-methoxy-2-pyridyl)methyl]-1-(p-tolylsulfonyl) pyrrole-3-carboxamide] |
